Reference: patent publication US20060223996A1, “IL-12 modulatory compounds” (Synta Pharmaceuticals Corp., priority 2004, published 2006)

Tested on: IL-12
Assay: Human in vitro assay: inhibition of IL-12 production in IFNγ/LPS- or IFNγ/SAC-stimulated human PBMC or THP-1 cells (ELISA)
Format: cell-based
Conditions: read-out: IC50 Range (representative in vitro IC50 data)
In short: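 PBMC (5×10^5 cells/well) primed with IFNγ 30 U/mL for 22 h then LPS 1 μg/mL, or IFNγ 100 U/mL then SAC 0.01%; THP-1 primed with IFNγ 100 U/mL for 22 h then SAC 0.025%, with compound in 0.25% DMSO. Supernatant IL-12 p70/p40 measured by sandwich ELISA after 18 h; IC50 derived; viability by MTS.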

Compound	IC50
Cc1cc(NC(=O)c2cc(OCCN3CCOCC3)nc(N3CCOCC3)n2)ccc1N(C)C [Compound 288, 2-Morpholin-4-yl-6-(2-morpholin-4-yl-ethoxy)-pyrimidine-4-carboxylic acid (4-dimethylamino-3-methyl-phenyl)-amide]	≥ 1000 nM
O=C(Nc1nnc(N2CCOCC2)[nH]1)c1cc(OCCN2CCOCC2)nc(N2CCOCC2)n1 [Compound 293, 2-Morpholin-4-yl-6-(2-morpholin-4-yl-ethoxy)-pyrimidine-4-carboxylic acid (5-morpholin-4-yl-4H-[1,2,4]triazol-3-yl)-amide]	≥ 1000 nM
O=C(Nc1cc(OCCN2CCOCC2)nc(N2CCOCC2)n1)Nc1cccc2ncccc12 [Compound 140, 1-[2-Morpholin-4-yl-6-(2-morpholin-4-yl-ethoxy)-pyrimidin-4-yl]-3-quinolin-5-yl-urea]	≥ 1000 nM
COCCN(C)c1cc(C(=O)Nc2ccc3cnn(C)c3c2)nc(N2CCOCC2)n1 [Compound 217, 6-((2-methoxyethyl)(methyl)amino)-N-(1-methyl-1H-indazol-6-yl)-2-morpholinopyrimidine-4-carboxamide]	≥ 1000 nM
COCCN(C)c1cc(C(=O)Nc2cccc(C#CC(C)(C)O)c2)nc(N2CCOCC2)n1 [Compound 226, 6-[(2-Methoxy-ethyl)-methyl-amino]-2-morpholin-4-yl-pyrimidine-4-carboxylic acid [3-(3-hydroxy-3-methyl-but-1-ynyl)-phenyl]-amide]	≥ 1000 nM
CC(C)c1cccc(NC(=O)c2cc(OCCN3CCOCC3)nc(N3CCOCC3)n2)c1 [Compound 213, N-(3-isopropylphenyl)-2-morpholino-6-(2-morpholinoethoxy)pyrimidine-4-carboxamide]	≥ 1000 nM
Cc1ccnc(NC(=O)c2cc(OCCc3ccccn3)nc(N3CCOCC3)n2)c1 [Compound 35, 2-Morpholin-4-yl-6-(2-pyridin-2-yl-ethoxy)-pyrimidine-4-carboxylic acid (4-methyl-pyridin-2-yl)-amide]	≥ 1000 nM
Cc1c(C)n(C)c2ccc(N(C)C(=O)c3cc(OCCN4CCOCC4)nc(N4CCOCC4)n3)cc12 [Compound 31, 2-Morpholin-4-yl-6-(2-morpholin-4-yl-ethoxy)-pyrimidine-4-carboxylic acid methyl-(1,2,3-trimethyl-1H-indol-5-yl)-amide]	≥ 1000 nM
CN1CCCc2cc(NC(=O)c3cc(OCCN4CCOCC4)nc(N4CCOCC4)n3)ccc21 [Compound 318, 2-Morpholin-4-yl-6-(2-morpholin-4-yl-ethoxy)-pyrimidine-4-carboxylic acid (1-methyl-1,2,3,4-tetrahydro-quinolin-6-yl)-amide]	≥ 1000 nM
COCCN(C)c1cc(C(=O)Nc2ccc3c(c2)OCCO3)nc(N2CCOCC2)n1 [Compound 200, N-(2,3-dihydrobenzo[b][1,4]dioxin-6-yl)-6-((2-methoxyethyl)(methyl)amino)-2-morpholinopyrimidine-4-carboxamide]	≥ 1000 nM
COCCN(C)c1cc(C(=O)Nc2ccc(NC(C)=O)cc2)nc(N2CCOCC2)n1 [Compound 165, 6-[(2-Methoxy-ethyl)-methyl-amino]-2-morpholin-4-yl-pyrimidine-4-carboxylic acid (4-acetylamino-phenyl)-amide]	≥ 1000 nM
CC(=O)N1CCN(c2cc(C(=O)Nc3ccc4[nH]c(C)c(C)c4c3)nc(N3CCOCC3)c2)CC1 [Compound 169, 4-(4-Acetyl-piperazin-1-yl)-6-morpholin-4-yl-pyridine-2-carboxylic acid (2,3-dimethyl-1H-indol-5-yl)-amide]	< 1000 nM
CNCCOc1cc(C(=O)Nc2ccc3c(c2)c(C)c(C)n3C)nc(N2CCOCC2)n1 [Compound 286, 6-(2-Methylamino-ethoxy)-2-morpholin-4-yl-pyrimidine-4-carboxylic acid (1,2,3-trimethyl-1H-indol-5-yl)-amide]	< 1000 nM

Now from value to compound:

IC50	Compound
< 1000 nM	COCCNc1cc(C(=O)Nc2ccc3[nH]c(C)c(C)c3c2)nc(N2CCOCC2)n1 [Compound 252, N-(2,3-dimethyl-1H-indol-5-yl)-6-(2-methoxyethylamino)-2-morpholinopyrimidine-4-carboxamide]
< 1000 nM	COCCN(C)c1cc(C(=O)Nc2cccc(-n3cccn3)c2)nc(N2CCOCC2)n1 [Compound 311, 6-[(2-Methoxy-ethyl)-methyl-amino]-2-morpholin-4-yl-pyrimidine-4-carboxylic acid (3-pyrazol-1-yl-phenyl)-amide]
< 1000 nM	CCc1c[nH]c2ccc(NC(=O)c3cc(N4CCCCC4)nc(N4CCOCC4)n3)cc12 [Compound 179, 2-Morpholin-4-yl-6-piperidin-1-yl-pyrimidine-4-carboxylic acid (3-ethyl-1H-indol-5-yl)-amide]
< 1000 nM	Cc1[nH]c2ccc(NC(=O)c3cc(N4CCOCC4)nc(N4C[C@@H](C)O[C@@H](C)C4)n3)cc2c1C [Compound 281, 2-(2,6-Dimethyl-morpholin-4-yl)-6-morpholin-4-yl-pyrimidine-4-carboxylic acid (2,3-dimethyl-1H-indol-5-yl)-amide]
< 1000 nM	Cc1[nH]c2ccc(NC(=O)c3cc(NCC(N)=O)nc(N4CCOCC4)n3)cc2c1C [Compound 104, 6-(Carbamoylmethyl-amino)-2-morpholin-4-yl-pyrimidine-4-carboxylic acid (2,3-dimethyl-1H-indol-5-yl)-amide]
< 1000 nM	CN(CCO)c1cc(C(=O)Nc2cccc(-n3cccn3)c2)nc(N2CCOCC2)n1 [Compound 315, 6-[(2-Hydroxy-ethyl)-methyl-amino]-2-morpholin-4-yl-pyrimidine-4-carboxylic acid (3-pyrazol-1-yl-phenyl)-amide]
< 1000 nM	O=C(Nc1ccc2[nH]c3c(c2c1)CCCC3)c1cc(N2CCC(O)CC2)cc(N2CCOCC2)n1 [Compound 185, 4-Hydroxy-6′-morpholin-4-yl-3,4,5,6-tetrahydro-2H-[1,4′]bipyridinyl-2′-carboxylic acid (6,7,8,9-tetrahydro-5H-carbazol-3-yl)-amide; compound with methanesulfonic acid]
< 1000 nM	Cn1c(=O)oc2ccc(NC(=O)c3cc(OCCN4CCOCC4)nc(N4CCOCC4)n3)cc21 [Compound 218, N-(3-methyl-2-oxo-2,3-dihydrobenzo[d]oxazol-5-yl)-2-morpholino-6-(2-morpholinoethoxy)pyrimidine-4-carboxamide]
< 1000 nM	O=C(Nc1cccc(C(F)(F)F)c1)Nc1cc(N2CCOCC2)nc(OCCN2CCOCC2)n1 [Compound 121, 1-[6-Morpholin-4-yl-2-(2-morpholin-4-yl-ethoxy)-pyrimidin-4-yl]-3-(3-trifluoromethyl-phenyl)-urea]
< 1000 nM	COCCN(C)c1cc(N2CCOCC2)cc(C(=O)Nc2ccc3[nH]c(C)c(C)c3c2)n1 [Compound 156, 6-[(2-Methoxy-ethyl)-methyl-amino]-4-morpholin-4-yl-pyridine-2-carboxylic acid (2,3-dimethyl-1H-indol-5-yl)-amide]
< 1000 nM	COCCN(CCOC)c1cc(C(=O)Nc2ccc3[nH]c(C)c(C)c3c2)nc(N2CCOCC2)n1 [Compound 258, 6-(bis(2-methoxyethyl)amino)-N-(2,3-dimethyl-1H-indol-5-yl)-2-morpholinopyrimidine-4-carboxamide]
< 1000 nM	Cc1c(C)n(C)c2ccc(NC(=O)c3cc(OCCN4CCOCC4)cc(N4CCOCC4)n3)cc12 [Compound 146, 6-Morpholin-4-yl-4-(2-morpholin-4-yl-ethoxy)-pyridine-2-carboxylic acid (1,2,3-trimethyl-1H-indol-5-yl)-amide]
